Source: patent US4801613A, “Bradykinin antagonist peptides” (Nova Technology Limited Partnership, priority 1987, dated 1989)
Read-outs that look alike come from different tables or passages of the source. Non-standard residues stand in square brackets, D forms with d. Residues, ends and D or L forms follow the SMILES beside them. No end group written: not given here. 2Thi = N[C@@H](Cc1cccs1)C(=O)O

Columns and labels:
[1] = test system: kininases; conditions: rat, in vivo
[2] = test system: isolated rat uterus; assay type: cell-based
Experimental: (§1) The bradykinin antagonists were assayed on isolated rat uterus in natural or induced estrus and on guinea pig ileum, according to the commonly accepted assay methods for bradykinin and related kinins as described by Trautschold (Handbook of Expt. Pharmacol. Vol. 25, Springer Verlag, pp 53-55, 1970) for inhibition of the myotropic activity of bradykinin. The inhibition potencies, as determined according to the commonly accepted manner described by Schild for antagonists of biologically active compounds (Br. J. Pharmacol. 2:189, 1947), are determined on isolated rat uterus (RUT) and isolated guinea pig ileum (GPI). In the assays, a dose-response curve is determined for the reference substance bradykinin. The dose of bradykinin which produced a half maximal contraction of tissue is the ED50 dose. An amount of bradykinin equivalent to twice the ED50 dose is administered to the tissue 30 seconds after the start of incubation of the tissue with a dose of antagonist. Doses of antagonist are increased in this protocol until pre-incubation with a dose of antagonist reduces the contraction in response to the double ED50 dose of bradykinin to response of a single ED50 dose of bradykinin. The pA2 value represents the negative logarithm of the molar concentration of antagonist necessary to reduce the response of a double ED50 dose of bradykinin to that of an ED50 dose. One unit of pA2 value represents an order of magnitude change in potency. For comparison, the negative log of the dose of BK, the dose which causes half maximal contraction of the tissues, is commonly known as the pD2 value. The pD2 value for bradykinin is 7.9 on the rat uterus and 7.4 on the guinea pig ileum.

[3] = test system: guinea pig ileum; assay type: cell-based
Experimental: as §1
(§2) In each case, as shown, the BK-related antagonists inhibited contractions produced by BK-related agonists, but had no effect on the non-kinin myotropic peptide substances. The inhibition potencies are listed as pA2 values as described above.

[4] = test system: isolated guinea pig ileum; assay type: cell-based
Experimental: as §1, §2

[5] = test system: kininases; conditions: anesthetized rat; single pass in the pulmonary circulation
[6] = test system: kininases; conditions: anesthetized rat; Roblero, Ryan and Stewart 1973; cited from earlier work
[7] = Ferreira & Vane 1967; cited from earlier work

Q: With `N=C(N)NCCC[C@@H](N)C(=O)N[C@@H](CCCNC(=N)N)C(=O)N1CCC[C@H]1C(=O)N1CCC[C@H]1C(=O)NCC(=O)N[C@@H](Cc1ccccc1)C(=O)N[C@@H](CO)C(=O)N1CCC[C@H]1C(=O)N[C@@H](Cc1ccccc1)C(=O)N[C@@H](CCCNC(=N)N)C(=O)O` [DArg--BK] (H-[dR]RPPGFSPFR-OH) as the compound, how does the “% DESTRUCTION” value [1] read?
A: Its value is 92%.

Q: With `N=C(N)NCCC[C@H](NC(=O)[C@H](Cc1ccccc1)NC(=O)[C@@H]1CCCN1C(=O)[C@H](CO)NC(=O)[C@H](Cc1ccccc1)NC(=O)CNC(=O)[C@@H]1CCCN1C(=O)[C@@H]1CCCN1C(=O)[C@H](CCCNC(=N)N)NC(=O)[C@H](N)CCCCN)C(=O)O` [DLys--BK] as the compound, how does the “% DESTRUCTION” value [1] read?
A: Its value is 89%.

Q: Which results are given for `N=C(N)NCCC[C@@H](N)C(=O)N[C@@H](CCCNC(=N)N)C(=O)N1CCC[C@H]1C(=O)N1CCC[C@H]1C(=O)NCC(=O)N[C@@H](Cc1cccs1)C(=O)N[C@@H](CO)C(=O)N[C@H](Cc1ccccc1)C(=O)N[C@@H](Cc1cccs1)C(=O)N[C@@H](CCCNC(=N)N)C(=O)O` [Example 15, DArg-Arg-Pro-Pro-Gly-Thi-Ser-DPhe-Thi-Arg] (H-[dR]RPPG[2Thi]S[dF][2Thi]R-OH)?
A: RUT pA2 [2]: 5.2; pA2/RUT [2]: 5.5; GUINEA PIG ILEUM KAL (pA2) [3]: 6.7; GUINEA PIG ILEUM MK--BK (pA2) [3]: 6.4; GUINEA PIG ILEUM BK (pA2) [4]: 6.1

Q: With `NCCCC[C@H](N)C(=O)N[C@@H](CCCN=C(N)N)C(=O)N1CCC[C@H]1C(=O)N1CCC[C@H]1C(=O)NCC(=O)N[C@@H](Cc1ccccc1)C(=O)N[C@@H](CO)C(=O)N1CCC[C@H]1C(=O)N[C@@H](Cc1ccccc1)C(=O)N[C@@H](CCCN=C(N)N)C(=O)O` [Lys--BK] as the compound, how does the “% DESTRUCTION” value [1] read?
A: Its value is 95%.

Q: With `N=C(N)NCCC[C@H](NC(=O)[C@H](Cc1ccccc1)NC(=O)[C@@H]1CCCN1C(=O)[C@H](CO)NC(=O)[C@H](Cc1ccccc1)NC(=O)CNC(=O)[C@@H]1CCCN1C(=O)[C@@H]1CCCN1C(=O)[C@H](CCCNC(=N)N)NC(=O)[C@H](CCCCN)NC(=O)[C@@H](N)CCCCN)C(=O)O` [Lys--Lys--BK] as the compound, how does the “% DESTRUCTION” value [1] read?
A: Its value is 0%.

Q: For `N=C(N)NCCC[C@H](NC(=O)[C@H](Cc1cccs1)NC(=O)[C@@H]1CCCN1C(=O)[C@H](CO)NC(=O)[C@H](Cc1cccs1)NC(=O)CNC(=O)[C@@H]1CCCN1C(=O)[C@@H]1CCCN1C(=O)[C@H](CCCNC(=N)N)NC(=O)[C@H](CCCCN)NC(=O)[C@@H](N)CCCCN)C(=O)O` [Lys--Lys--Thi^5,8 --BK] (H-KKRPPG[2Thi]SP[2Thi]R-OH), which “% DESTRUCTION” value [5] is on record?
A: The value was 0%.

Q: Which “% DESTRUCTION” value [5] does the source give for `N=C(N)NCCC[C@H](NC(=O)[C@H](Cc1cccs1)NC(=O)[C@@H]1CCCN1C(=O)[C@H](CO)NC(=O)[C@H](Cc1cccs1)NC(=O)CNC(=O)[C@@H]1CCCN1C(=O)[C@@H]1CCCN1C(=O)[C@@H](N)CCCNC(=N)N)C(=O)O` [Thi^5,8 --BK] (H-RPPG[2Thi]SP[2Thi]R-OH) here?
A: Its value is 95%.

Q: For “RPPGFSPFR [Bradykinin (BK), Arg-Pro-Pro-Gly-Phe-Ser-Pro-Phe-Arg]”, which “pD2 value (negative log of dose causing half maximal contraction)” value ([2]; rat uterus) is on record?
A: Its value is 7.9.

Q: And the “pD2 value (negative log of dose causing half maximal contraction)” value ([4]; guinea pig ileum)?
A: The value was 7.4.

Q: And the “destruction on a single passage through the pulmonary circulation” value [6]?
A: The value was 98-99%.

Q: What about the “half life in the systemic circulation” value [7] of the same compound?
A: The value was “less than 30 seconds”.

Q: And the “% DESTRUCTION” value [5]?
A: Its value is 98%.
